# Data: US6117889A, “7-Azabicyclo-[2.2.1]-heptane and -heptene derivatives as analgesics and anti-inflammatory agents” (priority 1996, dated 2000)
# Read-outs that look alike come from different tables or passages of the source.
# How the values were obtained:
# [1] = test system: acetylcholine nicotinic receptor; experiment: nicotinic receptor binding, [3H]-NMCI radioligand, rat cortex (Table 5)
# Method: 7-aza-bicyclo[2.2.1]-heptanes and -heptenes were evaluated for their ability to bind to the acetylcholine nicotinic receptor using a standard binding assay, e.g. X. Zhang and A. Nordberg, Arch. Pharmacol., 348, 28 (1993); R. E. Middleton and J. B. Cohen, Biochemistry, 30, 6987 (1991), with nicotine sulfate as the reference compound, rat cortex as the tissue substrate, and a [^3 H]-NMCI radioligand.
# [2] = analgesic activity, Straub-Tail assay (Table 4); type: in vivo
# Text: A wide variety of biological assays have been used to evaluate the ability of a compound to act as an analgesic. Any of these known assays can be used to evaluate the analgesic ability of the compounds disclosed herein. The Straub-tail reaction, which is characteristic of opiate alkaloids, has been used as an assay for opiate agonists and antagonists. The assay is described in detail in Br. J. of Pharmacol. 1969, 36, 225. Another accepted assay for analgesic activity is the hot plate analgesia assay, described in J. of Pharmacol. Exp. Therap. 1953, 107, 385. An assay for the evaluation of the ability of a compound to bind to an opiate receptor is described in Mol. Pharmacol. 1974, 10, 868.
# […] Daly et al. J. Am. […] Chem. Soc. 1992, 114, 3475; T. Li, et al. Bioorganic and Medicinal Chemistry Letters 1993, 3, 2759.
# [3] = Straub-Tail assay, read-out: ED50
smiles,measurement,setting,value
C[N+]1(C)C2CCC1C(c1ccc(Cl)nc1)C2 (stereo not drawn),Inhibition %,[1]; testing level 10^-7 M,100%
same,Inhibition %,[1]; testing level 10^-9,49%
N=CN1C2CCC1C(c1ccc(Cl)nc1)C2 (stereo not drawn),Inhibition %,[1]; testing level 10^-9,49%
same,Inhibition %,[1]; testing level 10^-11,22%
N=CN1C2CCC1C(c1cccnc1)C2 (stereo not drawn),Inhibition %,[1]; testing level 10^-9,5%
COc1ccc([C@@H]2C[C@H]3CC[C@@H]2N3)cn1 (relative stereo),ED50,[2]; [3],0.75 mg/kg
Clc1ccc([C@@H]2C[C@H]3CC[C@@H]2N3CC2CC2)cn1 (relative stereo),"analgesic activity (Straub-Tail), % at 1000 μg/Kg",[2]; @ 1000 (μg/Kg),100%
Clc1ccc([C@@H]2C[C@H]3CC[C@@H]2N3CCc2ccccc2)cn1 (relative stereo),ED50,[2]; [3],< 1 mg/kg
c1cncc([C@@H]2C[C@H]3CC[C@@H]2N3)c1 (relative stereo),ED50,[2]; [3],0.25 mg/kg
Clc1ccc([C@@H]2C[C@H]3C=C[C@@H]2N3)cn1 (relative stereo),ED50,[2]; [3],< 1 mg/kg
Fc1ccc([C@@H]2C[C@H]3CC[C@@H]2N3)cn1 (relative stereo),ED50,[2]; [3],~0.05 mg/kg
ClCCN1[C@@H]2CC[C@H]1[C@H](c1ccc(Cl)nc1)C2 (relative stereo),ED50,[2],~0.1 mg/kg
Clc1ccc([C@@H]2C[C@H]3CC[C@@H]2N3)cn1 (relative stereo),ED50,[2]; Straub-Tail assay,0.01 mg/kg
N=CN1[C@@H]2CC[C@H]1[C@H](c1ccc(Cl)nc1)C2 (relative stereo),"analgesic activity (Straub-Tail), % at 100",[2]; @ 100,99%
CC(C)(C)Oc1ccc([C@@H]2C[C@H]3CC[C@@H]2N3)cn1 (relative stereo),ED50,[2]; [3],~1 mg/kg
CN1[C@@H]2CC[C@H]1[C@H](c1ccc(Cl)nc1)C2 (relative stereo) [drawing 33],ED50,[2]; [3],< 0.01 mg/kg
CN1C2CCC1C(c1ccc(Cl)nc1)C2 (stereo not drawn) [R = CH3],Inhibition %,[1]; testing level 10^-5 M,81%
Clc1ccc(C2CC3CCC2N3)cn1 (stereo not drawn) [R = H],Inhibition %,[1]; testing level 10^-7 M,24%
